Peptide text beside a SMILES is read from it. * marks the point of attachment. Cbz = O=C(OCc1ccccc1)*
Tested on: calpain
Assay: cell-based luminescent calpain activity assay

EC50: 14 ± 1.4 µM
SMILES: CC(C)[C@H](NC(=O)OCc1ccccc1)C(=O)N[C@H](C=O)Cc1ccccc1 [MDL-28170] (Cbz-Val-Phe-aldehyde)
